US9198879B2, “Pharmacologically optimized multimodal drug delivery system for nordihydroguiaretic acid (NDGA)” (Napo Pharmaceuticals, Inc., priority 2011, dated 2015)
Entries after “also recorded” stand apart in the source; their conditions may differ.

Tests used:
[1] = system: liver triglyceride secretion; test: Liver triglyceride secretion; format: in vivo; settings: NDGA treatment
Excerpt: (§1) It is likely that the triglyceride-lowering effect of NDGA may also be explained, at least in part, by the suppression of free fatty acid (FFA) release. Free fatty acids in the circulation can enter the liver and can be re-assembled into triglycerides by the process of re-esterification. […] It should be noted that other mechanisms for reducing triglycerides, such as increased triglyceride clearance, are not ruled out by these findings.
The triglyceride-lowering effect of NDGA may be explained by the suppression of free fatty acid (FFA) release. Free fatty acids in the circulation can enter the liver and be re-assembled into triglycerides in a process known as re-esterification.

[2] = Phase I safety study, patients reporting adverse events; format: in vivo, human; settings: n = 29
Description: (§2) The first Phase I study of NDGA was an ascending-dose, single-dose, single-blind (subject), placebo-controlled study conducted in healthy male volunteers between 18 and 45 years old. Fourteen subjects participated in up to 3 study periods, and 5 doses of NDGA were studied: 200, 400, 800, 1600, and 2000 mg. During each study period the subjects were monitored for safety for 72 hours following NDGA oral administration. Blood samples collected following NDGA administration were used to determine NDGA concentrations in plasma. […] The orally administered NDGA used in the study was contained in white, opaque, size 3 gelatin capsules. Each capsule contained 100 mg of NDGA.
The second Phase I study of NDGA was an open-label, randomized, two-period crossover study designed to determine if a high-fat meal affects the absorption of NDGA, and to provide preliminary information about possible gender differences in the pharmacokinetics of NDGA. A total of 16 healthy volunteers (8 men and 8 women), ranging in age from 19 to 48 years old, participated in this study. Each subject received an active NDGA dose under fasted conditions and another under fed conditions (the two study periods were separated by a 7-day washout period). Blood samples were collected immediately before and for 48 hours following NDGA administration and used for determination of plasma concentrations of NDGA. The NDGA used in the study was provided in white, opaque Size 0 gelatin capsules. Each capsule contained 250 mg of NDGA.

[3] = system: fructose-fed hypertriglyceridemic rats; test: Fructose-fed hypertriglyceridemic rat model; format: in vivo
Excerpt: as §1
(§3) These reductions in free fatty acid concentration could result from either decreased production (by reduced lipolysis) or increased removal of free fatty acids from the circulation by liver, fat or muscle.

Fructose/STZ rats = test: Triglyceride and FFA lowering in Fructose/STZ rats; format: in vivo, rat; settings: fructose-fed/STZ rats
Excerpt: (§4) In this study, the following animal models where used: • Db/db mice: homozygous mice are a model of obesity, diabetes and dyslipedemia where their leptin receptor activity is deficient. • Ob/ob mice: obese mice with diabetes. • Db/lean mice: heterozygous mice that are not diabetic. • Fat/STZ rats: non-genetically diabetic overweight rats that are fed diets enriched in fat and made hyperglycemic by chemically removing their pancreatic function to reduce insulin production by treating them with streptozotocin (STZ). • Fructose/STZ rats: non-diabetic rats that are fed diets enriched in fructose and made hyperglycemic by treating them with STZ. • ZDF rats: obese and hyperglycemic rats with other metabolic disorders.
as §3

[4] = cited from earlier work
cecum = settings: in vivo; cited from earlier work
ZDF rats = test: Glucose and triglyceride lowering in ZDF rats; format: in vivo, rat
Excerpt: as §4
Baseline glucose and triglyceride concentrations, where appropriate, were measured for both diabetic and normal animals.

fat/STZ rat [5] = test: Whole-body insulin-stimulated glucose disposition (SSPG) with constant intravenous glucose/insulin infusion; format: in vivo; settings: steady-state plasma insulin held constant
Description: (§5) Studies were also conducted to determine the mechanism by which NDGA lowers glucose. To do so, NDGA was administered to determine the effects of NDGA on insulin-stimulated glucose disposition and on basal hepatic glucose production using the high fat diet fed/streptozotocin (STZ) rat model of NIDDM. Whole-body insulin-stimulated glucose disposition was measured using a constant intravenous glucose/insulin infusion, in which the steady-state plasma insulin concentration (SSPI) is held constant and the steady-state plasma glucose concentration (SSPG) is a measure of net glucose clearance. […] In these same studies basal hepatic glucose production was measured using an intravenous infusion of radiolabeled glucose (no insulin was infused).
(§6) Studies were conducted to determine the effects of NDGA (masoprocol) on insulin-stimulated glucose disposition and on basal hepatic glucose production using the fat/STZ rat. Whole-body insulin-stimulated glucose disposition was measured using a constant intravenous glucose/insulin infusion, in which the steady-state plasma insulin concentration (SSPI) is held constant and the steady-state plasma glucose concentration (SSPG) is a measure of net glucose clearance.

fat/STZ rat [6] = test: Basal hepatic glucose production by intravenous infusion of radiolabeled glucose; format: in vivo; settings: no insulin infused, p<0.05
Description: as §5, §6

rat adipocytes = settings: cited from earlier work
[7] = First Phase I ascending single-dose study, NDGA concentrations in plasma after oral capsules; format: in vivo, human; settings: for AUC0-last / Cmax / Tmax: capsule, healthy male volunteers
Description: as §2
The results for each of the five doses are depicted in FIGS. 4 to 8 corresponding to 200, 400, 800, 1600 and 2000 mg dosages, respectively.
The pharmacokinetic parameters of NDGA as observed in this experiment are given below in Table 1: […]

CC(Cc1ccc(O)c(O)c1)C(C)Cc1ccc(O)c(O)c1 (stereo not shown) [NDGA, nordihydroguaiaretic acid]
liver triglyceride secretion [1]: inhibit liver triglyceride secretion
Patients reporting adverse event: Abdominal pain ([2]; Body as a whole): 1
Patients reporting adverse event: Asthenia ([2]; Body as a whole): 2
Patients reporting adverse event: Headache ([2]; Body as a whole): 8
Patients reporting adverse event: Neck rigidity ([2]; Body as a whole): 1
Patients reporting adverse event: Pain ([2]; Body as a whole): 1
Patients reporting adverse event: Syncope ([2]; Cardiovascular system): 1
Patients reporting adverse event: Diarrhea ([2]; Digestive system): 2
Patients reporting adverse event: Dyspepsia ([2]; Digestive system): 1
Patients reporting adverse event: GI hemorrhage ([2]; Digestive system): 1
Patients reporting adverse event: Increased appetite ([2]; Digestive system): 1
Patients reporting adverse event: Vomiting ([2]; Digestive system): 1
Patients reporting adverse event: Dizziness ([2]; Nervous system): 1
Patients reporting adverse event: Hyperesthesia ([2]; Nervous system): 1
Patients reporting adverse event: Increased coughing ([2]; Respiratory system): 1
Patients reporting adverse event: Pharyngitis ([2]; Respiratory system): 1
Patients reporting adverse event: Eye pain ([2]; Special senses): 1
Patients reporting adverse event: Hematuria ([2]; Urogenital system): 1
free fatty acid (FFA) concentrations ([3]; fructose-fed hypertriglyceridemic rats): decreases free fatty acid (FFA) concentrations
glucose lowering ([3]; fructose-fed rats, 80 mg/kg twice daily): did not lower glucose levels
triglyceride lowering ([3]; hypertriglyceridemic rat model, low doses of 10 and 20 mg/kg): triglyceride-lowering effects
free fatty acid (FFA) concentrations (Fructose/STZ rats): decreases free fatty acid (FFA) concentrations
plasma triglyceride lowering (Fructose/STZ rats): significantly and dramatically lowered plasma triglycerides
solubility in aqueous media / water ([4]; aqueous media): poorly water-soluble; also recorded: insoluble
solubility in organic solvents ([4]; organic solvents such as methanol and ethanol): soluble
lesions in the cecum (cecum): known to cause lesions in the cecum
plasma triglyceride lowering (ZDF rats): significantly and dramatically lowered plasma triglycerides
glucose lowering (ZDF rats; given orally): significantly lowers glucose
reduction of steady-state plasma glucose concentration (SSPG) versus vehicle control group (fat/STZ rat [5]; p<0.05): approximately 30%
reduction of steady-state plasma glucose concentration (SSPG) versus vehicle control group (fat/STZ rat [5]; p<0.05, listed as Masoprocol): 30%
hourly hepatic glucose production compared to vehicle (fat/STZ rat [6]): significantly reduced hourly hepatic glucose production
glucose transport (rat adipocytes; adipocytes, in vitro): directly stimulates glucose transport
isoproterenol-induced lipolysis (rat adipocytes; rat adipocytes, in vitro (Gowri et al., 1999)): inhibition
AUC0-last ([7]; 200 mg single oral dose): 66 +/− 26 ng-eq hr/ml
Cmax ([7]; 200 mg single oral dose): 32.6 +/− 15.3 ng-eq/ml
Tmax ([7]; 200 mg single oral dose): 1.3 ± 0.5 h
AUC0-last ([7]; 400 mg single oral dose): 385 +/− 90 ng-eq hr/ml
Cmax ([7]; 400 mg single oral dose): 69.1 +/− 51.6 ng-eq/ml
Tmax ([7]; 400 mg single oral dose): 1.8 ± 0.5 h
AUC0-last ([7]; 800 mg single oral dose): 591 +/− 252 ng-eq hr/ml
Cmax ([7]; 800 mg single oral dose): 120.3 +/− 66.3 ng-eq/ml
Tmax ([7]; 800 mg single oral dose): 1.8 ± 1.0 h
AUC0-last ([7]; 1600 mg single oral dose): 889 +/− 252 ng-eq hr/ml
Cmax ([7]; 1600 mg single oral dose): 189.3 +/− 65.7 ng-eq/ml
Tmax ([7]; 1600 mg single oral dose): 1.5 ± 0.6 h
AUC0-last ([7]; 2000 mg single oral dose): 1380 +/− 514 ng-eq hr/ml
Cmax ([7]; 2000 mg single oral dose): 187.6 +/− 106.0 ng-eq/ml
Tmax ([7]; 2000 mg single oral dose): 1.0 ± 0.0 h
Safety of each tested dose ([7]; 200, 400, 800, 1600 and 2000 mg single oral dose, monitored 72 hours): considered safe
Shape of concentration vs. time curves ([7]; all five doses, 200 to 2000 mg): unimodal (single peak)
Dose proportionality of peaks ([7]; increasing dose levels, 200 to 2000 mg): less than dose proportional
Elimination ([7]; oral capsule (immediate release), lower dose levels): rapid elimination
